Active and inactive are the calls of the source.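 How the source made its calls: active means fitted half-maximal concentration for changing reporter fluorescence at or below a set limit; inactive means the rest.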
Target: Citrate synthase, peroxisomal (Saccharomyces cerevisiae (strain ATCC 204508 / S288c)) (UniProt P08679)
Test: yeast TOR pathway CIT2-GFP reporter potency – flow cytometry, MLPCN hits, dose response (AID 2744)
Conditions: S. cerevisiae CIT2-GFP strain, 3 h, at 33 µM (top of the series)

Chain of Citrate synthase, peroxisomal (Saccharomyces cerevisiae (strain ATCC 204508 / S288c)) (P08679 whole entry, looked up): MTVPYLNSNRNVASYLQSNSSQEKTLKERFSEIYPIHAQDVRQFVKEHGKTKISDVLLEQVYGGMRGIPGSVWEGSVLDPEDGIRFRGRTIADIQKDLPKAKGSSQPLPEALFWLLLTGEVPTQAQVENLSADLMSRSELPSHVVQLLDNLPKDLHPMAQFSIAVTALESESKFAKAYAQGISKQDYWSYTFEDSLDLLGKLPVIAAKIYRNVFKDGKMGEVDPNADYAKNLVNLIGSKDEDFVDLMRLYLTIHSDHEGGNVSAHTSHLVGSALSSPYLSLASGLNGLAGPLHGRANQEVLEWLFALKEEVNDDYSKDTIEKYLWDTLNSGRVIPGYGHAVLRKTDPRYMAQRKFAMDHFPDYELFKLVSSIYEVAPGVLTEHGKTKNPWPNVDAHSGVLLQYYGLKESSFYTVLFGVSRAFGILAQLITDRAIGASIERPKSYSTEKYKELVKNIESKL

GFP fluorescence, higher = induction | Compound
inactive | Cc1ccc(/C=C2\SC(=S)N(Cc3ccccc3)C2=O)o1
inactive | CCN1C(=O)/C(=C\C(=O)c2cccs2)c2cc(Br)ccc21
inactive | COc1cc(/C=C2/C(=O)c3cccc([N+](=O)[O-])c3C2=O)c(Br)cc1O
inactive | CC(=O)Oc1ccc(N2C(=O)C3C4C=CC(O4)C3C2=O)cc1 (stereo not given)
inactive | COc1ccc(/C=C/C(=O)NC(=S)NNC(=O)c2cnccn2)cc1
inactive | COc1ccc(C(=O)NC(=S)NNC(=O)c2cnccn2)cc1OC
inactive | COc1cccc2sc(Nc3nc(-c4ccccn4)cs3)nc12
inactive | Cc1cc(C)c(C)c(S(=O)(=O)ON2C(=O)c3ccccc3C2=O)c1C
inactive | Clc1cnc(N/N=C/c2cccs2)c(Cl)c1
inactive | O=[N+]([O-])c1cc(O)c2ncccc2c1
inactive | C#CCOCCOCCOCCNc1nc(N2CCN(C(=O)CCCCCCCCCCNC(=O)[C@H](CCCCN)n3cc(C)nn3)CC2)nc(N2CCN(C(=O)CCCCCCCCCCNC(=O)[C@H](CCCN=C(N)N)n3cc(C[C@@H](C)CC)nn3)CC2)n1
inactive | O=C(Oc1ccnc2cc(Cl)ccc12)N1CCOCC1
inactive | O=C(/C=C/c1cccc([N+](=O)[O-])c1)c1ccc([N+](=O)[O-])o1
inactive | CCc1ccc(/C=C/C(=O)c2cc(Br)ccc(=O)c2O)cc1
inactive | CCc1nc2ccccc2c(=O)n1NC(=O)c1c(O)c2ccccc2n(CC)c1=O
inactive | Cc1ccc2[nH]c(C)c(/C=C/c3cc[n+](C)cc3)c2c1
inactive | COc1ccc(C(=O)/C=C2/C(=O)Nc3ccccc32)cc1OC
inactive | Cc1[nH][nH]c(=O)c1C(c1ccc(-c2ccc(Cl)cc2)o1)c1c(C)[nH][nH]c1=O
inactive | CC1=C/C(=N\OS(=O)(=O)c2ccccc2)C(C(C)C)=CC1=O
inactive | O=C(Oc1cccc2cccnc12)c1ccc(Br)o1
inactive | O=C1c2ccccc2C(=O)N1OS(=O)(=O)c1ccc(F)cc1
inactive | CCc1sc(C(=O)Nc2nc(-c3ccccn3)cs2)cc1C
inactive | Cc1ccccc1[C@@]1(C)ON(c2ccccc2C(F)(F)F)C1=O
inactive | Cc1ccc(C(=O)Oc2oc(-c3ccccc3)nc2C=Nc2ccc(N(C)C)cc2)cc1
inactive | CC(=O)Oc1ccc(N2C(=O)C3C4C=CC(CO)(O4)C3C2=O)cc1 (stereo not given)
inactive | CCOC(=O)CSC1=NC(=O)/C(=C/c2ccc(Br)cc2)S1
inactive | Cc1ccc(C(c2cc(Cl)c3cccnc3c2O)N2CCN(C)CC2)cc1 (stereo not given)
inactive | O=C1C=C(c2ccc(Cl)cc2)C(=O)N1Nc1ccccc1
inactive | O=[N+]([O-])c1ccc(S(=O)(=O)c2cccc(C(F)(F)F)c2)nc1
inactive | C=CCOc1ccccc1C(=O)/C=C1/C(=O)Nc2ccccc21
